Measured values from ChEMBL document CHEMBL1137006, “Optimization of the central linker of dicationic bis-benzimidazole anti-MRSA and anti-VRE agents” (2009).
Values after ≈ are worked out from the molar mass of the structure shown.

Tests used:
Assay type in all cases: functional
Staphylococcus aureus [1] = assay: Antibacterial activity against Staphylococcus aureus ATCC 29213 by NCCLS method
Staphylococcus aureus [2] = assay: Antibacterial activity against multi-drug resistant Staphylococcus aureus BAA-39 by NCCLS method
Staphylococcus aureus [3] = assay: Antibacterial activity against methicillin-resistan Staphylococcus aureus ATCC 33591 by NCCLS method
[4] = system: Staphylococcus epidermidis; assay: Antibacterial activity against Staphylococcus epidermidis ATCC 12228 by NCCLS method
[5] = system: Staphylococcus epidermidis; assay: Antibacterial activity against methicillin-resistan Staphylococcus epidermidis ATCC 51625 by NCCLS method
Streptococcus pneumoniae = assay: Antibacterial activity against Streptococcus pneumoniae ATCC 6301 by NCCLS method
Enterococcus faecalis = assay: Antibacterial activity against vancomycin-resistant Enterococcus faecalis ATCC 51575 by NCCLS method
Enterococcus faecium = assay: Antibacterial activity against vancomycin-resistant Enterococcus faecium ATCC 700221 by NCCLS method
Bacillus subtilis = assay: Antibacterial activity against Bacillus subtilis ATCC 23857 by NCCLS method
Bacillus cereus = assay: Antibacterial activity against Bacillus cereus ATCC 11778 by NCCLS method
Bacteroides fragilis = assay: Antibacterial activity against Bacteroides fragilis ATCC 23745 by NCCLS method
Clostridium perfringens = assay: Antibacterial activity against Clostridium perfringens ATCC 10388 by NCCLS method

SMILES | MIC (Staphylococcus aureus [1]) [µg/mL] | MIC (Staphylococcus aureus [2]) [µg/mL] | MIC (Staphylococcus aureus [3]) [µg/mL] | MIC [4] [µg/mL] | MIC [5] [µg/mL] | MIC (Streptococcus pneumoniae) [µg/mL] | MIC (Enterococcus faecalis) [µg/mL] | MIC (Enterococcus faecium) [µg/mL] | MIC (Bacillus subtilis) [µg/mL] | MIC (Bacillus cereus) [µg/mL] | MIC (Bacteroides fragilis) [µg/mL] | MIC (Clostridium perfringens) [µg/mL]
CC(C)NC(=N)c1ccc2[nH]c(-c3ccc(Oc4ccc(-c5nc6cc(C(=N)NC(C)C)ccc6[nH]5)cc4)cc3)nc2c1 | 0.25 (≈ 0.438 µM) | 0.5 (≈ 0.876 µM) | 0.12 (≈ 0.21 µM) | < 0.06 | < 0.06 | < 0.06 | 0.12 (≈ 0.21 µM) | < 0.06 | < 0.06 | < 0.06 | 2 (≈ 3.5 µM) | 0.5 (≈ 0.876 µM)
CC(C)NC(=N)c1ccc2[nH]c(-c3ccc(CCc4ccc(-c5nc6cc(C(=N)NC(C)C)ccc6[nH]5)cc4)cc3)nc2c1 | 0.25 (≈ 0.429 µM) | 0.5 (≈ 0.858 µM) | 0.25 (≈ 0.429 µM) | < 0.06 | 0.12 (≈ 0.206 µM) | < 0.06 | 0.25 (≈ 0.429 µM) | 0.12 (≈ 0.206 µM) | 0.12 (≈ 0.206 µM) | 0.12 (≈ 0.206 µM) | 0.5 (≈ 0.858 µM) | 0.25 (≈ 0.429 µM)
CC(C)NC(=N)c1ccc2[nH]c(-c3ccc(Sc4ccc(-c5nc6cc(C(=N)NC(C)C)ccc6[nH]5)cc4)cc3)nc2c1 | > 32 | 32 (≈ 54.5 µM) | 16 (≈ 27.3 µM) | 8 (≈ 13.6 µM) | 16 (≈ 27.3 µM) | > 32 | > 32 | 16 (≈ 27.3 µM) | 16 (≈ 27.3 µM) | 8 (≈ 13.6 µM) | > 32 | > 32
CN[C@H](CC(C)C)C(=O)N[C@H]1C(=O)N[C@@H](CC(N)=O)C(=O)N[C@H]2C(=O)N[C@H]3C(=O)N[C@H](C(=O)N[C@H](C(=O)O)c4cc(O)cc(O)c4-c4cc3ccc4O)[C@H](O)c3ccc(c(Cl)c3)Oc3cc2cc(c3O[C@@H]2O[C@H](CO)[C@@H](O)[C@H](O)[C@H]2O[C@H]2C[C@](C)(N)[C@H](O)[C@H](C)O2)Oc2ccc(cc2Cl)[C@H]1O [VANCOMYCIN] |  |  |  |  |  | 1 (≈ 0.69 µM) | > 32 | > 64 | 0.12 (≈ 0.0828 µM) |  | 4 (≈ 2.76 µM) | 0.12 (≈ 0.0828 µM)
CC(C)NC(=N)c1ccc2[nH]c(-c3ccc(NS(=O)(=O)c4ccc(-c5nc6cc(C(=N)NC(C)C)ccc6[nH]5)cc4)cc3)nc2c1 | > 32 | 16 (≈ 25.2 µM) | 16 (≈ 25.2 µM) | 2 (≈ 3.16 µM) | 4 (≈ 6.31 µM) | 1 (≈ 1.58 µM) | 2 (≈ 3.16 µM) | 4 (≈ 6.31 µM) | 2 (≈ 3.16 µM) | 2 (≈ 3.16 µM) | 2 (≈ 3.16 µM) | 4 (≈ 6.31 µM)
CC(C)NC(=N)c1ccc2[nH]c(-c3ccc([C@@H]4C[C@H]4c4ccc(-c5nc6cc(C(=N)NC(C)C)ccc6[nH]5)cc4)cc3)nc2c1 | 1 (≈ 1.68 µM) | 0.5 (≈ 0.841 µM) | 0.25 (≈ 0.42 µM) | ≤ 0.06 | 0.12 (≈ 0.202 µM) | ≤ 0.06 | 0.5 (≈ 0.841 µM) | 0.12 (≈ 0.202 µM) | 0.12 (≈ 0.202 µM) | 0.12 (≈ 0.202 µM) | 0.5 (≈ 0.841 µM) | 0.25 (≈ 0.42 µM)
CC(C)NC(=N)c1ccc2[nH]c(-c3ccc(-c4ccc(-c5ccc(-c6nc7cc(C(=N)NC(C)C)ccc7[nH]6)cc5)o4)cc3)nc2c1 | > 32 | 32 (≈ 51.5 µM) | 2 (≈ 3.22 µM) | 4 (≈ 6.44 µM) | 2 (≈ 3.22 µM) | 0.12 (≈ 0.193 µM) | > 32 | 2 (≈ 3.22 µM) | 2 (≈ 3.22 µM) | 2 (≈ 3.22 µM) | > 32 | 1 (≈ 1.61 µM)
CC1(C)S[C@@H]2[C@H](NC(=O)Cc3ccccc3)C(=O)N2[C@H]1C(=O)O [PENICILLIN G] | 1 (≈ 2.99 µM) | > 32 | > 32 | 32 (≈ 95.7 µM) | 32 (≈ 95.7 µM) | < 0.06 | 4 (≈ 12 µM) | > 32 | < 0.06 | > 4 | 4 (≈ 12 µM) | ≤ 0.12
CC(C)NC(=N)c1ccc2[nH]c(-c3ccc(N(c4ccccc4)c4ccc(-c5nc6cc(C(=N)NC(C)C)ccc6[nH]5)cc4)cc3)nc2c1 | 1 (≈ 1.55 µM) | 0.5 (≈ 0.774 µM) | 0.5 (≈ 0.774 µM) | 0.25 (≈ 0.387 µM) | 0.25 (≈ 0.387 µM) | 0.12 (≈ 0.186 µM) | 0.5 (≈ 0.774 µM) | 0.12 (≈ 0.186 µM) | ≤ 0.06 | 0.12 (≈ 0.186 µM) | 4 (≈ 6.19 µM) | 1 (≈ 1.55 µM)
CC(C)NC(=N)c1ccc2[nH]c(-c3ccc(Cc4ccc(-c5nc6cc(C(=N)NC(C)C)ccc6[nH]5)cc4)cc3)nc2c1 | 1 (≈ 1.76 µM) | 1 (≈ 1.76 µM) | 0.25 (≈ 0.44 µM) | 0.12 (≈ 0.211 µM) | 0.25 (≈ 0.44 µM) | < 0.06 | 0.25 (≈ 0.44 µM) | 0.12 (≈ 0.211 µM) | 0.25 (≈ 0.44 µM) | 0.25 (≈ 0.44 µM) | 1 (≈ 1.76 µM) | 1 (≈ 1.76 µM)
CC(C)NC(=N)c1ccc2[nH]c(-c3ccc(COc4ccc(-c5nc6cc(C(=N)NC(C)C)ccc6[nH]5)cc4)cc3)nc2c1 | 1 (≈ 1.71 µM) | 4 (≈ 6.84 µM) | 0.5 (≈ 0.855 µM) | ≤ 0.06 | 0.25 (≈ 0.428 µM) | ≤ 0.06 | 1 (≈ 1.71 µM) | 0.12 (≈ 0.205 µM) | 0.12 (≈ 0.205 µM) | 0.12 (≈ 0.205 µM) | 32 (≈ 54.7 µM) | 16 (≈ 27.4 µM)
CC(C)NC(=N)c1ccc2[nH]c(-c3ccc(Nc4ccc(-c5nc6cc(C(=N)NC(C)C)ccc6[nH]5)cc4)cc3)nc2c1 | 0.25 (≈ 0.439 µM) | 0.25 (≈ 0.439 µM) | 0.25 (≈ 0.439 µM) | 0.12 (≈ 0.211 µM) | 0.25 (≈ 0.439 µM) | 0.12 (≈ 0.211 µM) | 0.25 (≈ 0.439 µM) | 0.12 (≈ 0.211 µM) | 0.12 (≈ 0.211 µM) | 0.12 (≈ 0.211 µM) | > 32 | 2 (≈ 3.51 µM)
CC(C)NC(=N)c1ccc2[nH]c(-c3ccc(N(C)c4ccc(-c5nc6cc(C(=N)NC(C)C)ccc6[nH]5)cc4)cc3)nc2c1 | 1 (≈ 1.71 µM) | 0.5 (≈ 0.857 µM) | 0.5 (≈ 0.857 µM) | 0.12 (≈ 0.206 µM) | 0.12 (≈ 0.206 µM) | 0.12 (≈ 0.206 µM) | 0.25 (≈ 0.428 µM) | ≤ 0.06 | 0.12 (≈ 0.206 µM) | 0.25 (≈ 0.428 µM) | > 32 | 1 (≈ 1.71 µM)
O=C(O)c1cn(C2CC2)c2cc(N3CCNCC3)c(F)cc2c1=O [CIPROFLOXACIN] | 0.5 (≈ 1.51 µM) | 8 (≈ 24.1 µM) | ≤ 0.12 | ≤ 0.12 | ≤ 0.12 |  | 0.5 (≈ 1.51 µM) | > 32 | ≤ 0.12 | ≤ 0.12 | 0.5 (≈ 1.51 µM) | 
CC(C)NC(=N)c1ccc2[nH]c(-c3ccc(C#Cc4ccc(-c5nc6cc(C(=N)NC(C)C)ccc6[nH]5)cc4)cc3)nc2c1 | 2 (≈ 3.46 µM) | 4 (≈ 6.91 µM) | 2 (≈ 3.46 µM) | 0.12 (≈ 0.207 µM) | 0.25 (≈ 0.432 µM) |  | 32 (≈ 55.3 µM) | 0.5 (≈ 0.864 µM) | 4 (≈ 6.91 µM) | 0.5 (≈ 0.864 µM) | > 32 | 4 (≈ 6.91 µM)
CC(C)NC(=N)c1ccc2[nH]c(-c3ccc(/C=C/c4ccc(-c5nc6cc(C(=N)NC(C)C)ccc6[nH]5)cc4)cc3)nc2c1 | 1 (≈ 1.72 µM) | 1 (≈ 1.72 µM) | 0.5 (≈ 0.861 µM) | 0.12 (≈ 0.207 µM) | 0.25 (≈ 0.43 µM) | 0.25 (≈ 0.43 µM) | 0.5 (≈ 0.861 µM) | 0.25 (≈ 0.43 µM) | 0.25 (≈ 0.43 µM) | 0.25 (≈ 0.43 µM) | 0.5 (≈ 0.861 µM) | 0.5 (≈ 0.861 µM)
CC(C)NC(=N)c1ccc2[nH]c(-c3ccc4c(c3)Cc3ccc(-c5nc6cc(C(=N)NC(C)C)ccc6[nH]5)cc3S4)nc2c1 | 16 (≈ 26.7 µM) | 8 (≈ 13.4 µM) | 2 (≈ 3.34 µM) | 2 (≈ 3.34 µM) | 0.5 (≈ 0.835 µM) | 0.12 (≈ 0.2 µM) | 16 (≈ 26.7 µM) | 0.5 (≈ 0.835 µM) | 1 (≈ 1.67 µM) | 1 (≈ 1.67 µM) | > 32 | 0.5 (≈ 0.835 µM)
